Experimental data taken from paper PMC12416277, “Phytochemical alkaloids orchestrate immunometabolism against viral infections” (National Science Review, 2025).

Key:
[1] = system: IFNB1, IFIT1, IFIT2 and IFI44 mRNA; experiment: IFNB1 and ISG mRNA expression in A549, PBMC and MEF cells (qRT-PCR); format: cell-based; conditions: A549, PBMC, MEF cells
[2] = system: VSV; format: cell-based, vesicular stomatitis virus (VSV); conditions: Sting-/- BMDM cells vs WT
[3] = system: VSV; format: in vivo, C57/BL6J mice; conditions: mice
[4] = system: VSV; format: cell-based, vesicular stomatitis virus (VSV)
[5] = system: H1N1; experiment: H1N1 mRNA in WT, TPCN1-/-, TPCN2-/- A549 cells or with nimodipine, qRT-PCR; format: cell-based, influenza virus A (H1N1)
[6] = system: VSV; format: cell-based, vesicular stomatitis virus (VSV); remark: listed apart in the source
[7] = molecular target: T1, NPC1 (Homo sapiens, UniProt O15118); experiment: Cellular thermal shift assay (CETSA); conditions: 150 µM, HepG2 and A549 lysates
T1 sequence (O15118 23-1278): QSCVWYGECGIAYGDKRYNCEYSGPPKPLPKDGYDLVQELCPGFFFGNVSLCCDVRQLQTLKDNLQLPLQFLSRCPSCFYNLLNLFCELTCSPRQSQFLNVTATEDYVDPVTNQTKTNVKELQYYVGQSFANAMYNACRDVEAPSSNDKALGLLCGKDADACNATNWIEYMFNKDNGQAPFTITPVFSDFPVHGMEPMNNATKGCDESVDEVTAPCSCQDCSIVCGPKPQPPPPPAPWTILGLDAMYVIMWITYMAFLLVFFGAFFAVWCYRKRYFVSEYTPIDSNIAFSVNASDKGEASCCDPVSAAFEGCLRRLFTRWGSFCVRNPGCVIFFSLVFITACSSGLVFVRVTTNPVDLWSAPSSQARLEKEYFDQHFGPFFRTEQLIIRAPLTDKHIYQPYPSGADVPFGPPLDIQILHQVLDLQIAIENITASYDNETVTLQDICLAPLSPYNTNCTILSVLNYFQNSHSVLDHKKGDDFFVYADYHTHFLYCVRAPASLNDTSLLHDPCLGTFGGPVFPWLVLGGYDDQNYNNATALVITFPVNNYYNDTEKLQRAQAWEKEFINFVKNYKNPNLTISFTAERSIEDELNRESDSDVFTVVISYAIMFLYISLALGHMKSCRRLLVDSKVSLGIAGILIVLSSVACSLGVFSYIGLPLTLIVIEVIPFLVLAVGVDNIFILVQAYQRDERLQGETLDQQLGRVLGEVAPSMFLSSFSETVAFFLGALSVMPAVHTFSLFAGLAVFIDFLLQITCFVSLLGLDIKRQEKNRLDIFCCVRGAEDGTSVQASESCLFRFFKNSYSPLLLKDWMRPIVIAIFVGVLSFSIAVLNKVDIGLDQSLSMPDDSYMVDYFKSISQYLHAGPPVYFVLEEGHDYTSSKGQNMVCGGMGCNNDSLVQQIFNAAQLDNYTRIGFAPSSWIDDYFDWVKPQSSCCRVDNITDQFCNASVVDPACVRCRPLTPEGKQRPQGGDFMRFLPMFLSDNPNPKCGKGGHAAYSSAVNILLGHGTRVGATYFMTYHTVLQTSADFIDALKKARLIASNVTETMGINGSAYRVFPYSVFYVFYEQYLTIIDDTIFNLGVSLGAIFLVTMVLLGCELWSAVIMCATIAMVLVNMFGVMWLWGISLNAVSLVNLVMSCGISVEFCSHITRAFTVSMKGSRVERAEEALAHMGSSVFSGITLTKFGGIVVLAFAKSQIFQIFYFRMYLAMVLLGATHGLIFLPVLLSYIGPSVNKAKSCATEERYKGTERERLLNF

[8] = system: H1N1; experiment: Dose-response of infectivity, H1N1 in L929 cells; format: cell-based; conditions: Influenza A virus
[9] = system: H1N1; experiment: Antiviral effect in normal/serum-free medium during H1N1 infection of A549 cells; format: cell-based, influenza virus A (H1N1); conditions: serum-free conditions

Compound: COc1ccc2cc1Oc1ccc(cc1)C[C@H]1c3cc(c(OC)cc3CCN1C)Oc1c(OC)c(OC)cc3c1[C@H](C2)N(C)CC3 [Tet, tetrandrine]
- IFNB1 and ISGs mRNA [1]: upregulation
- antiviral effect against VSV [2]: markedly reduced
- IL-6 level in serum ([3]; VSV infection): markedly decreased
- TNF-α level in serum ([3]; VSV infection): markedly decreased
- VSV-G protein expression in lungs and spleens ([3]; VSV infection): inhibited
- lung pathology (H&E) ([3]; VSV infection): reduced lung pathology and cellular infiltrations
- reduction of VSV genome copies in liver, lung, and spleen tissues ([3]; intraperitoneal and intragastric, 10–60 mg/kg, 24 hours pre-VSV infection): 0.5–1 log₁₀
- VSV replication [4]: suppressed
- antiviral efficacy [4]: remained unchanged
- H1N1 replication [5]: suppressed
- antiviral efficacy ([5]; with nimodipine treatment): remained unchanged
- VSV infection [6]: effectively suppressed
- NPC1 stability (CETSA) [7]: enhanced NPC1 stability against degradation
- EC50 [8]: 541 nM
- antiviral effect on H1N1 entry [9]: diminished
